Laboratory results taken from patent US20200392084A1 (priority 2017, published 2020).
Converted amounts (≈) assume the structure as drawn. Where two headings read alike, the source gives them in different places.

What was measured:
[1] = Solvent solubility screen; assay type: physicochemical; settings: thermodynamic from solid
[2] = of people; cited from earlier work
[3] = pKa determination (UV-metric); assay type: physicochemical; settings: 0.15 M KCl
[4] = logP determination (pH-metric); assay type: physicochemical; settings: 24.9-25.0 °C, 0.15M KCl
[5] = 50° C./75% RH, t=5 days
[6] = not given; remark: listed apart in the source
[7] = Stability assessment of diethylamine salt (Example 6); assay type: physicochemical
[8] = 25° C./60% RH, 1 month (Day 35)
[9] = 25° C./60% RH, 3 months (Day 96)
[10] = 40° C./75% RH, 1 month (Day 35)
[11] = 40° C./75% RH, 3 months (Day 96)

SMILES: O=C(O)c1cc(/N=N/c2ccc(S(=O)(=O)Nc3ccccn3)cc2)ccc1O [Sulfasalazine]
- solubility ([1]; 1,4-dioxane, 40 °C, organic solvent or mixture, 1,4-Dixoane, read-out: Approx. Solubility): < 5000 µg/mL
- solubility ([1]; 1-butanol, 40 °C, organic solvent or mixture, read-out: Approx. Solubility): < 5000 µg/mL
- solubility ([1]; 1-propanol, 40 °C, organic solvent or mixture, read-out: Approx. Solubility): < 5000 µg/mL
- solubility ([1]; 2-propanol, 40 °C, organic solvent or mixture, read-out: Approx. Solubility): < 5000 µg/mL
- solubility ([1]; 2-propanol/water (50:50), 40 °C, aqueous with cosolvent or surfactant or cyclodextrin, read-out: Approx. Solubility): < 5000 µg/mL
- solubility ([1]; 40 °C, organic solvent or mixture, all solvents of the 24-solvent screen except DMF and THF, read-out: solubility values): < 5000 µg/mL
- solubility ([1]; acetone, 40 °C, organic solvent or mixture, read-out: Approx. Solubility): < 5000 µg/mL
- solubility ([1]; acetone/water (50:50), 40 °C, aqueous with cosolvent or surfactant or cyclodextrin, read-out: Approx. Solubility): < 5000 µg/mL
- solubility ([1]; acetonitrile, 40 °C, organic solvent or mixture, read-out: Approx. Solubility): < 5000 µg/mL
- solubility ([1]; acetonitrile/water (50:50), 40 °C, aqueous with cosolvent or surfactant or cyclodextrin, read-out: Approx. Solubility): < 5000 µg/mL
- solubility ([1]; dichloromethane, 40 °C, organic solvent or mixture, read-out: Approx. Solubility): < 5000 µg/mL
- solubility ([1]; dimethylformamide, organic solvent or mixture, read-out: Approx. Solubility): > 100000 µg/mL
- solubility ([1]; ethanol, 40 °C, organic solvent or mixture, read-out: Approx. Solubility): < 5000 µg/mL
- solubility ([1]; ethyl acetate, 40 °C, organic solvent or mixture, read-out: Approx. Solubility): < 5000 µg/mL
- solubility ([1]; ethyl formate, 40 °C, organic solvent or mixture, read-out: Approx. Solubility): < 5000 µg/mL
- solubility ([1]; heptane, 40 °C, organic solvent or mixture, Hepatane, read-out: Approx. Solubility): < 5000 µg/mL
- solubility ([1]; isobutyl acetate, 40 °C, organic solvent or mixture, read-out: Approx. Solubility): < 5000 µg/mL
- solubility ([1]; isopropyl acetate, 40 °C, organic solvent or mixture, read-out: Approx. Solubility): < 5000 µg/mL
- solubility ([1]; methanol, 40 °C, organic solvent or mixture, read-out: Approx. Solubility): < 5000 µg/mL
- solubility ([1]; methanol/water (50:50), 40 °C, aqueous with cosolvent or surfactant or cyclodextrin, read-out: Approx. Solubility): < 5000 µg/mL
- solubility ([1]; methyl ethyl ketone, 40 °C, organic solvent or mixture, Methylethyl Ketone, read-out: Approx. Solubility): < 5000 µg/mL
- solubility ([1]; nitromethane, 40 °C, organic solvent or mixture, read-out: Approx. Solubility): < 5000 µg/mL
- solubility ([1]; tetrahydrofuran, organic solvent or mixture, read-out: Approx. Solubility): 10000 µg/mL (≈ 25.1 mM)
- solubility ([1]; toluene, 40 °C, organic solvent or mixture, read-out: Approx. Solubility): < 5000 µg/mL
- solubility ([1]; water, 40 °C, water, read-out: Approx. Solubility): < 5000 µg/mL
- Thermodynamic solubility, Concentration (pH 1): Less than the limit
- Thermodynamic solubility, Concentration (pH 4.5): Less than the limit
- Thermodynamic solubility, Concentration (pH 6.8): Less than the limit
- Significant side effects occur in [2]: about 25%
- pKa ([3]; Type Acid (first acidic group), 25.0 °C): 2.29
- pKa ([3]; Type Acid (second acidic group), 25.0-25.1 °C): 11
- pKa ([3]; Type Base (pyridine), 25.0-25.1 °C): ~8.05
- LogP ([4]; Cationic species): 3.73 ± 0.01
- LogP ([4]; Zwitterionic species): 0.02 ± 0.03
- solubility (physchem; acetone, organic solvent or mixture): 1100 µg/mL (≈ 2.76 mM)
- solubility (physchem; acetonitrile, organic solvent or mixture): 300 µg/mL (≈ 0.753 mM)
- solubility (physchem; ethanol, organic solvent or mixture): 500 µg/mL (≈ 1.26 mM)
- solubility (physchem; ethyl acetate, organic solvent or mixture): 400 µg/mL (≈ 1 mM)
- solubility (physchem; isopropyl alcohol, organic solvent or mixture): 500 µg/mL (≈ 1.26 mM)
- solubility (physchem; methanol, organic solvent or mixture): 900 µg/mL (≈ 2.26 mM)
- solubility (physchem; methyl ethyl ketone, organic solvent or mixture): 900 µg/mL (≈ 2.26 mM)
- solubility (physchem; methyl tert-butyl ether, organic solvent or mixture): 300 µg/mL (≈ 0.753 mM)
- solubility (physchem; water): 400 µg/mL (≈ 1 mM)

SMILES: CCNCC.O=C(O)c1cc(/N=N/c2ccc(S(=O)(=O)Nc3ccccn3)cc2)ccc1O [diethylamine salt Form A, sulfasalazine diethylamine salt Form A]
- stability [5]: no evidence of degradation
- hygroscopicity ([6]; Example 4): slightly hygroscopic
- moisture absorbed ([6]; at/up to 95% RH): more than 1 wt %
- Appearance [7, 8]: Dark Orange
- Assay (Anhydrous, Solvent Free) [7, 8]: 97.2% (w/w %)
- Total Impurities [7, 8]: 0.87%
- Water Content [7, 8]: 0.8% (w/w %)
- XRPD (Conforms to Form A) [7, 8]: Conforms to
- Appearance [7, 9]: Dark Orange
- Assay (Anhydrous, Solvent Free) [7, 9]: 95.9% (w/w %)
- Total Impurities [7, 9]: 0.76%
- Water Content [7, 9]: 0.7% (w/w %)
- XRPD (Conforms to Form A) [7, 9]: Conforms to
- Appearance [7, 10]: Dark Orange
- Assay (Anhydrous, Solvent Free) [7, 10]: 97.9% (w/w %)
- Total Impurities [7, 10]: 0.87%
- Water Content [7, 10]: 1.1% (w/w %)
- XRPD (Conforms to Form A) [7, 10]: Conforms to
- Appearance [7, 11]: Dark Orange
- Assay (Anhydrous, Solvent Free) [7, 11]: 96.5% (w/w %)
- Total Impurities [7, 11]: 0.77%
- Water Content [7, 11]: 1.1% (w/w %)
- XRPD (Conforms to Form A) [7, 11]: Conforms to
- Appearance ([7]; T = 0 (Day 0)): Dark Orange
- Assay (Anhydrous, Solvent Free) ([7]; T = 0 (Day 0)): 99.6% (w/w %)
- Total Impurities ([7]; T = 0 (Day 0)): 0.73%
- Water Content ([7]; T = 0 (Day 0)): 0.4% (w/w %)
- XRPD (Conforms to Form A) ([7]; T = 0 (Day 0)): Conforms to
